Measured values reported in patent US20240058365A1, “External Preparation for Treating Epilepsy or Autism Spectrum Disorder” (OSAKA UNIVERSITY, priority 2019, published 2024).
Values joined by “and” are separate entries in the source; they are usually repeats but may differ in a detail not shown here. Identical values can stand only once.

How the values were obtained:
[1] = system: Tuberous sclerosis complex model mice; experiment: Test Example 5: number of epileptic seizures (intraperitoneal administration); assay type: in vivo; conditions: intraperitoneal 3 mg/kg/day once a day for 7 days; observed 2 minutes 5 times per day; n=6
Procedure: FIG. 3 is a graph showing results obtained by intraperitoneally administering sirolimus (3 mg/kg/day) or saline to model mice and control mice (normal mice) once a day for 7 days (n=6 in each group). Homo represents tuberous sclerosis complex model mice, and Ct represents control mice (normal mice). *P<0.05, **P<0.01
Sirolimus (3 mg/kg/day) or a placebo (saline) was intraperitoneally administered to model mice and normal mice similar to those in Test Example 1 once a day for 7 days. The number of seizures was measured by observing the mice for 2 minutes 5 times per day (n=6 in each group). […] The number of seizures over 7 days in the group intraperitoneally administered sirolimus was about 5, which was nearly equal to the number of seizures in the case where the 0.2 wt % sirolimus gel was administered to the forehead once a day at 5 mg (10 μg in terms of sirolimus).

[2] = Test Example 6: blood concentration after 7-day intraperitoneal administration; assay type: in vivo, mice (C57BL/6J); conditions: intraperitoneal 3 mg/kg/day for 7 days; 24 hours after the 7th administration; individual mice
Procedure: Sirolimus (3 mg/kg/day) or a placebo (saline) was intraperitoneally administered to mice (C57BL/6J, body weight: 20 g) once a day for 7 days. After 24 hours from the administration on the 7th day, blood was collected from each of the mice, and blood sirolimus concentration was measured.
(§1) The measurement of the blood concentration was performed by the same method as in Test Example 3. The blood concentration after the topical application to the skin was one 26th in terms of average value as compared to the blood concentration after systemic administration by the intraperitoneal administration. […] The action mechanism by which epileptic seizures are suppressed through systemic administration and the mechanism by which epileptic seizures are suppressed through topical application may differ from each other.

[3] = Test Example 6: blood concentration after 7-day topical application; assay type: in vivo, ICR mice; conditions: 0.2 wt % sirolimus gel 5 mg (10 μg sirolimus) on shaved forehead once a day, 7 days; 24 hours after last; individual mice
Procedure: ICR mice (body weight: about 37 g) were obtained (Japan SLC, Inc.). The 0.2 wt % sirolimus gel prepared in Production Example 3 or a placebo (only the base) was applied to their shaved forehead once a day at 5 mg each (10 μg in terms of sirolimus). After 24 hours from the administration on the 7th day, blood was collected from each of the mice, and blood sirolimus concentration was measured.
as §1

For `CO[C@H]1C[C@@H]2CC[C@@H](C)[C@@](O)(O2)C(=O)C(=O)N2CCCC[C@H]2C(=O)O[C@H]([C@H](C)C[C@@H]2CC[C@@H](O)[C@H](OC)C2)CC(=O)[C@H](C)/C=C(\C)[C@@H](O)[C@@H](OC)C(=O)[C@H](C)C[C@H](C)/C=C/C=C/C=C/1C` [Sirolimus, sirolimus], the “number of seizures over 7 days” value [1] was “about 5”, the blood sirolimus concentration [2] was 94.43 ng/ml · blood and 85.59 ng/ml · blood and 48.55 ng/ml · blood and 216.83 ng/ml · blood and the blood sirolimus concentration [3] was 3.87 ng/ml · blood and 2.85 ng/ml · blood and 5.98 ng/ml · blood.
